Test results from the supplement of paper PMC10307832.

Legend:
Assay in all cases: relative viability (nuclei count vs DMSO), 5 days (fraction); higher = more cells survive
[1] = compound: C=CCn1c(=O)c2cnc(Nc3ccc(N4CCN(C)CC4)cc3)nc2n1-c1cccc(C(C)(C)O)n1 [Adavosertib] + CS(=O)(=O)CCNCc1ccc(-c2ccc3ncnc(Nc4ccc(OCc5cccc(F)c5)c(Cl)c4)c3c2)o1 [Lapatinib] (partner 2 µM)
Summary of the method: (§1)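 Five library-drug doses in √10 steps were combined with a fixed anchor-drug dose, or a single drug was given alone, by pin tool to lung cancer cell lines in 1536-well plates the day after seeding. Nuclei were stained and counted after 5 days. Relative viability is the nuclei count in treated wells over that in vehicle wells, taken as the median of duplicate plates.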

[2] = compound: COc1nc(N)nc2c1ncn2[C@@H]1O[C@H](CO)[C@@H](O)[C@@H]1O [Nelarabine] + Cc1nc(NC(=O)N2CCC[C@H]2C(N)=O)sc1-c1ccnc(C(C)(C)C(F)(F)F)c1 [Alpelisib] (partner 2 µM)
Summary of the method: as §1

[3] = compound: COc1nc(N)nc2c1ncn2[C@@H]1O[C@H](CO)[C@@H](O)[C@@H]1O [Nelarabine] + Cc1cc(Nc2cc(N3CCN(C)CC3)nc(Sc3ccc(NC(=O)C4CC4)cc3)n2)n[nH]1 [Tozasertib] (partner 0.1 µM)
Summary of the method: as §1

[4] = compound: COc1nc(N)nc2c1ncn2[C@@H]1O[C@H](CO)[C@@H](O)[C@@H]1O [Nelarabine] + O=C(c1cc(Cc2n[nH]c(=O)c3ccccc23)ccc1F)N1CCN(C(=O)C2CC2)CC1 [Olaparib] (partner 8 µM)
Summary of the method: as §1

Row | Cell Line | relative viability ([1]; first compound 0.01 µM) | relative viability ([1]; first compound 0.03162 µM) | relative viability ([1]; first compound 0.1 µM) | relative viability ([1]; first compound 0.3162 µM) | relative viability ([2]; first compound 0.01 µM) | relative viability ([2]; first compound 0.03162 µM) | relative viability ([2]; first compound 0.1 µM) | relative viability ([2]; first compound 0.3162 µM) | relative viability ([2]; first compound 1 µM) | relative viability ([3]; first compound 0.01 µM) | relative viability ([3]; first compound 0.03162 µM) | relative viability ([3]; first compound 0.1 µM) | relative viability ([3]; first compound 0.3162 µM) | relative viability ([3]; first compound 1 µM) | relative viability ([4]; first compound 0.01 µM) | relative viability ([4]; first compound 0.03162 µM) | relative viability ([4]; first compound 0.1 µM) | relative viability ([4]; first compound 0.3162 µM) | relative viability ([4]; first compound 1 µM)
1 | SK-MES-1 | 0.45 | 0.43 | 0.476 | 0.389 | 1.01 | 1 | 0.937 | 0.964 | 0.948 | 1 | 0.89 | 0.944 | 0.924 | 0.937 | 0.819 | 0.66 | 0.707 | 0.773 | 0.762
2 | NCI-H1755 | 1.12 | 1.02 | 1.04 | 1.09 | 1.13 | 0.879 | 0.984 | 1.15 | 1.08 | 0.683 | 0.524 | 0.561 | 0.645 | 0.557 | 0.878 | 0.966 | 0.931 | 0.938 | 0.927
3 | NCI-H2126 | 0.736 | 0.781 | 0.764 | 0.829 | 0.875 | 0.81 | 0.779 | 0.744 | 0.774 | 0.968 | 0.864 | 0.779 | 0.809 | 0.824 | 1.05 | 0.981 | 0.951 | 0.961 | 0.967
4 | NCI-H596 | 0.995 | 1.12 | 1.01 | 1 | 0.532 | 0.504 | 0.525 | 0.577 | 0.504 | 1.07 | 0.835 | 0.879 | 0.862 | 0.827 | 0.654 | 0.708 | 0.759 | 0.756 | 0.728
5 | NCI-H1944 | 0.765 | 0.709 | 0.908 | 0.783 | 0.817 | 0.78 | 0.828 | 0.814 | 0.79 | 0.285 | 0.239 | 0.252 | 0.27 | 0.253 | 0.486 | 0.436 | 0.481 | 0.435 | 0.419
6 | ABC-1 | 1.12 | 1.09 | 1.24 | 1.26 | 1.06 | 1.3 | 1.24 | 0.937 | 1.08 | 0.233 | 0.149 | 0.162 | 0.146 | 0.175 | 0.774 | 0.706 | 0.777 | 0.903 | 0.835
